Our source for the EC50 values is article PMC12073725, “Luminal Sweet Sensing and Enteric Nervous System Participate in Regulation of Intestinal Glucose Transporter, GLUT2” (Nutrients, 2025).

Each structure is given as a SMILES string.

This experiment addresses T1, pig T1R2–T1R3 (Sus scrofa, UniProt I1ZBR6+Q0EF93).
T1 construct: gene TAS1R2; heterodimer; full-length, custom-synthesised genes in modified pcDNA3/TO; N-terminal rat sst3 tags, C-terminal FLAG or HSV tags; HEK293PEAKrapid cells stably expressing Galpha15
T1 sequence (I1ZBR6 20-835): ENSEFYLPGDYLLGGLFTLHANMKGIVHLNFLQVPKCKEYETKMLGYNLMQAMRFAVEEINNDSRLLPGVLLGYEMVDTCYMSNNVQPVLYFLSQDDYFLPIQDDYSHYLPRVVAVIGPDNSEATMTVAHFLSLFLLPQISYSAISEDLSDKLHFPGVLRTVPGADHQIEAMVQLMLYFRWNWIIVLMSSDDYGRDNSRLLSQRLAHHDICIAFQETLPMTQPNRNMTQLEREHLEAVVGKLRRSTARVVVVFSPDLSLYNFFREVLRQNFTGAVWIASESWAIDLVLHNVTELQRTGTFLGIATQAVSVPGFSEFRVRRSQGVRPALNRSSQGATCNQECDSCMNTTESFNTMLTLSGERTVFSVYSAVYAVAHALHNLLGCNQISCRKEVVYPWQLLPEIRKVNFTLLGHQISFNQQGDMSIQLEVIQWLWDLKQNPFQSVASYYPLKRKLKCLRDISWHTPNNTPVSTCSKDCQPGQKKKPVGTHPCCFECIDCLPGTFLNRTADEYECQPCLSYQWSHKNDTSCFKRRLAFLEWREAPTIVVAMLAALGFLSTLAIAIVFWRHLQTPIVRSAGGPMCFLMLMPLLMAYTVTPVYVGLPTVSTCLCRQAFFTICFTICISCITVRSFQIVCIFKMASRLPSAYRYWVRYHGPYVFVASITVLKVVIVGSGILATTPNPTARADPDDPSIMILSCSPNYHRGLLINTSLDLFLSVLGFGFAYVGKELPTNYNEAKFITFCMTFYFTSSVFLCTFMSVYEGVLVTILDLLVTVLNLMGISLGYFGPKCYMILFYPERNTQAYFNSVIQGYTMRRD
T1 sequence (Q0EF93 19-855): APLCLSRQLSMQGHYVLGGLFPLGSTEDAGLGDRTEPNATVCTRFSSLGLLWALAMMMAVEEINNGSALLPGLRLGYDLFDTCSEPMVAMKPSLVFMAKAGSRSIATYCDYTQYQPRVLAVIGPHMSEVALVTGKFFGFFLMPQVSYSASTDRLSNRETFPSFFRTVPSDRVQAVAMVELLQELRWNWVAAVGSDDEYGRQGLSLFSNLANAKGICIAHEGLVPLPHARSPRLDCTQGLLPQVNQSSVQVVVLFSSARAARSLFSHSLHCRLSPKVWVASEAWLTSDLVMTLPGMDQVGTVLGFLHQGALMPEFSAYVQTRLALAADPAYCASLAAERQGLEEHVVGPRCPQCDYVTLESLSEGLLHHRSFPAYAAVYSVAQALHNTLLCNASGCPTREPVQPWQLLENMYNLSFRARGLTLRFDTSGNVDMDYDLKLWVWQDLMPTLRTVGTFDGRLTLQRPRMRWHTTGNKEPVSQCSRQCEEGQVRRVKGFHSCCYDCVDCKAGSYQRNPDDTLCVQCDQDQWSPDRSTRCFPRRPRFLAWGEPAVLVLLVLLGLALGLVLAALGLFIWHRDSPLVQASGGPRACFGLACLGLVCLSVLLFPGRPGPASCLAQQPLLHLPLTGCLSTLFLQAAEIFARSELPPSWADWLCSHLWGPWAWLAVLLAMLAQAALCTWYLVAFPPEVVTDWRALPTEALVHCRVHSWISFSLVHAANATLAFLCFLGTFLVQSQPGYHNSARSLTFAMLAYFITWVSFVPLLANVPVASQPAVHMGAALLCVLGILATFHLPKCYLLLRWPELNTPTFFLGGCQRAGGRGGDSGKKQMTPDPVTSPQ
In words: calcium mobilisation (Fluo-4), FlexStation3. Conditions: agonist; transfected HEK293PEAKrapid Galpha15 cells; mock-transfected control; curves in mg/mL. The experiment is classed as cell-based. (In general: Calcium flux is commonly read through the fluorescence of an indicator in the cells.)

With `COc1cc(C=O)ccc1O` [vanillin], the EC50 entry is “activation in response to stimulation with either each sweetener component of SMF (A)”.
